Assay results published in PMC3489043 (Nature neuroscience, 2011).
Where two headings read alike, the source gives them in different places.

What was measured:
[1] = tested on: mutant α7 AChRs; assay type: binding, human
[2] = molecular target: human α7 AChR (Homo sapiens, UniProt P36544); assay type: binding
[3] = tested on: muscle AChRs; details: cited from earlier work
[4] = tested on: α7 AChRs; details: cited from earlier work
[5] = molecular target: mutant α7 AChRs (Homo sapiens, UniProt P36544, W77F); assay type: binding
[6] = tested on: α7–AChBP chimera; assay: Radiolabeled ligand binding to the α7–AChBP chimera; parameters: species or system human / Lymnaea stagnalis

Sequence of human α7 AChR (P36544 23-502): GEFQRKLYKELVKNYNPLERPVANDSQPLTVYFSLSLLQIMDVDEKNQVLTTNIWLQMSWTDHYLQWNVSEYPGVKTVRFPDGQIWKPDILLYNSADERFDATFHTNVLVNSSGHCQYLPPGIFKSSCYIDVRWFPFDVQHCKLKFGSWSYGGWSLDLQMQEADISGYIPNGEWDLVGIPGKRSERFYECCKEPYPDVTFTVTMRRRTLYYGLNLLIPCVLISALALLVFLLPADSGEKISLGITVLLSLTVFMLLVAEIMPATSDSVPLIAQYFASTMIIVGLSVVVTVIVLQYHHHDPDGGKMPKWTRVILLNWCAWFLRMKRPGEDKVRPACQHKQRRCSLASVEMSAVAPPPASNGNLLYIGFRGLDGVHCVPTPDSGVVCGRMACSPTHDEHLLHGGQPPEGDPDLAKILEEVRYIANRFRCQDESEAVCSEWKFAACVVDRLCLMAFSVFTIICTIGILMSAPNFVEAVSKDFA
Sequence of mutant α7 AChRs (Homo sapiens, UniProt P36544, W77F) (P36544 23-502 W77F): as the sequence (P36544 23-502) above, with W55F counted along it

## CC(=O)OCC[N+](C)(C)C [ACh, acetylcholine]
[1]; substitutions at Arg182, Glu185, Glu181 (loop C) and Gln37, steady-state binding
  change of agonist affinity for the α7 AChR: increased affinity
[2]; steady-state binding
  cooperativity of ACh binding: highly cooperative

## C[N+](C)(C)CCO [choline]
[3]
  efficacy at muscle AChRs: low efficacy
[4]
  efficacy at α7 AChRs: high efficacy

## Clc1ccc(C2CC3CCC2N3)cn1 (stereo not shown) [epibatidine]
[5]
  cooperativity of epibatidine binding: markedly reduced cooperativity
[1]
  cooperativity of epibatidine binding: maintained cooperativity
  increase of the apparent dissociation constant by phenylalanine substitutions: 4- to 2,200 fold
[6]; radiolabeled ligand, Supplementary Fig. 2
  binding of radiolabeled ligand to the α7–AChBP chimera: bound
[2]
  epibatidine binding to the α7 AChR: cooperatively and with high affinity

## α-bungarotoxin
[6]
  binding of radiolabeled ligand to the α7–AChBP chimera: bound
